Source: patent US4055640A, “Compositions and methods for controlling the growth of bacteria, fungi and algae using certain derivatives of N-(2,2-dichlorovinyl)salicylamides” (Nippon Kayaku Co., Ltd., priority 1975, dated 1977)

Assays:
[1] = tested on: cucumber (variety; Tokiwazibai); assay: Phytotoxicity on cucumber (Experimental Example 4); type: in vivo; settings: 500 ppm
Experimental: Exterminating test on Fusarium wilt of cucumber Twenty (20) grams of infected soil was added uniformly into each pot which was filled with steam sterilized field soil, then 18 seeds of cucumber (variety; Tokiwazibai) were sowed in each pot. Eighty percent (80%) wettable powder of the present invention was diluted with water to obtain a suspension, and each pot was drenched with the suspension in an amount of 100 ml. Fifty percent (50%) wettable powder of methyl-1-(butylcarbamoyl) 2-benzimidazol carbamate (hereinafter referred to as Benlate) on the market was used as a control and tested by the same method. After two weeks of planting, degrees attacked by the pathogen was observed and a "percentage of healthy seedlings" was calculated as follows: [formula]

[2] = tested on: Fusarium wilt of cucumber; assay: Exterminating test on Fusarium wilt of cucumber (Experimental Example 4); type: in vivo, Fusarium oxysporum f, cucumerinum; settings: 500 ppm, soil drench 100 ml per pot, two weeks
In short: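 Pots of steam-sterilized soil mixed with 20 g infested soil, sown with 18 cucumber seeds (Tokiwazibai), drenched with 100 ml aqueous suspension of 80% wettable powder. Benlate 50% wettable powder run as control. Disease scored two weeks after planting as percentage of healthy seedlings.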

[3] = tested on: seedling blight of rice plant (pathogen Fusarium sp. and Rhizoctonia sp.); assay: Exterminating test on seedling blight of rice plant (Experimental Example 1); type: in vivo; settings: 0.25g/box a.i., 5% dust mixed with soil
In short: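 Pathogen-contaminated nursery soil (Fusarium sp., Rhizoctonia sp.) mixed with 5% compound dust at 5 g per box; Nihonbare rice sown, grown 7 days at 17° C in lighting chamber, then moved to field. Assessed 10 days later as percentage of healthy seedlings; commercial 4% hydroxyisoxazol dust run as control.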

[4] = tested on: Staphylococcus aureus; assay: Growth inhibition zone around treated cotton cloth (Example 18); type: cell-based; settings: emulsifiable concentrate diluted 1000 times
Experimental: (§1) The emulsifiable concentrates which were prepared by Example 10 were diluted with water 1000 times to form an emulsion. A cloth of cotton was soaked into each emulsion for 2 minutes. The clothes were dried at room temperature and cut into a square of which a side was 1 cm long. Each kind of test bacteria and fungi was inoculated, separately on plates of potato-agar and one square cloth was placed on each of such plates. Test bacteria and fungi were cultivated at 28° C for 4 days. The width of the region of growth-inhibition which was formed a circumference of the cloth was examined.

[5] = tested on: Penicillium Citrinum; assay: as above; type: cell-based; settings: emulsifiable concentrate diluted 1000 times
Experimental: as §1

[6] = tested on: Bacillus subtilis; assay: as above; type: cell-based; settings: emulsifiable concentrate diluted 1000 times
Experimental: as §1

[7] = tested on: Aspergillus niger; assay: as above; type: cell-based; settings: emulsifiable concentrate diluted 1000 times
Experimental: as §1

[8] = tested on: Cladosporium harbarum; assay: Minimum inhibitory concentration, dilution methods (Example 14); type: cell-based; settings: (1) potato-dextrose agar dilution method
Text: (§2) Bacteriocidal activity and fungicidal activity of the active compounds of the present invention were examined by potato-dextrose agar dilution method, [2] waxman's liquid medium dilution method or [3] glucose bouillon medium dilution method. The results are shown in Table 4 below as the minimum inhibitory concentration (the minimum concentration of active compound found to produce 100% control of the test bacteria and fungi).

[9] = tested on: Escherichia coli; assay: as above; type: cell-based; settings: (3) glucose bouillon medium dilution method
Text: as §2

[10] = tested on: Staphylococcus aureus; assay: as above; type: cell-based; settings: (3) glucose bouillon medium dilution method
Text: as §2

[11] = tested on: Penicillium Citrinum; assay: as above; type: cell-based; settings: (1) potato-dextrose agar dilution method
Text: as §2

[12] = tested on: Bacillus subtilis; assay: as above; type: cell-based; settings: (3) glucose bouillon medium dilution method
Text: as §2

[13] = tested on: Aspergillus niger; assay: as above; type: cell-based; settings: (1) potato-dextrose agar dilution method
Text: as §2

[14] = tested on: Aspergillus niger, Penicillium citrinum, Cladosporium harbarum and chaetomium globosum; assay: Degree of growth inhibition of fungi on treated beach plates (Example 17); type: cell-based; set-up: scale not given here; settings: numerical rating, 2 weeks
Experimental: The emulsifiable concentrates which were prepared by Example 10 were diluted with water 400 times and 800 times to form emulsions.
The square plates of beach of which a side was 5 cm long and thickness was 5 mm were dipped into the emulsion for 2 minutes and dried for 24 hours at room temperature.
The square plates were placed on the surface of agar plates. The suspensions which contained spores of Aspergillus niger, Penicillium citrinum, Cladosporium harbarum and chaetomium globosum were respectively sprayed on the agar plates and the square plates.
The test fungi were cultivated in the incubator at the humidity of 95% and the temperature of 28° C for 2 weeks.
The degree of growth inhibition is defined in terms of the following numerical ratings.

[15] = tested on: Rhizoctonia solani (damping-off of cucumber); assay: Exterminating test on damping-off of cucumber (Experimental Example 3); type: in vivo; settings: 1,000 ppm, soil drench 50 ml per pot, 10 days
In short: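 Pots of field soil infested with Rhizoctonia solani (5 g/pot), sown with 10 Azumamidori cucumber seeds, then drenched with 50 ml aqueous suspension of 80% wettable powder and kept in greenhouse. PCNB 50% wettable powder as control. Percentage of healthy seedlings scored 10 days after inoculation.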

| SMILES | Phytotoxicity [1] | pest or weed control at 500 ppm ([2]; Fusarium, 336 h, read-out: Percentage of healthy seedlings) | Percentage of healthy seedlings [3] | width of the growth inhibition zone [4] | width of the growth inhibition zone [5] | width of the growth inhibition zone [6] | width of the growth inhibition zone [7] | minimum inhibitory concentration [8] | minimum inhibitory concentration [9] | minimum inhibitory concentration [10] | minimum inhibitory concentration [11] | minimum inhibitory concentration [12] | minimum inhibitory concentration [13] | Percentage of healthy seedlings [2] | Degree of growth inhibition ([14]; 0.0125 %) | Degree of growth inhibition ([14]; 0.025 %) | Percentage of healthy seedlings [15] |
| --- | --- | --- | --- | --- | --- | --- | --- | --- | --- | --- | --- | --- | --- | --- | --- | --- | --- |
| CCCCNC(=O)n1c(NC(=O)OC)nc2ccccc21 [Benlate, methyl-1-(butylcarbamoyl) 2-benzimidazol carbamate, reference compound] | Nil | 45% |  |  |  |  |  |  |  |  |  |  |  |  |  |  |  |
| O=C(NC=C(Cl)Cl)c1ccccc1[O-].O=C(NC=C(Cl)Cl)c1ccccc1[O-].[Zn+2] [compound 24] |  |  | 71.3% | 8 mm | 5 mm | 10 mm | 5 mm | 2.5 mc g/ml | 40 mc g/ml | 5 mc g/ml | 10 mc g/ml | 2.5 mc g/ml | 10 mc g/ml | 47.0% | 3 | 3 | 100% |
